Assay results: PMC12124858, “Thymoquinone loaded on chitosan nanoparticles alleviated the consequences of cryptosporidiosis infection in a murine model: Evidence from parasitological, histopathological, immunohistochemical, and immunological studies” (PLOS One, 2025)
Marks after values point to notes of the source that are not given here.

What was measured:
[1] = In vitro release study, dialysis method; format: physicochemical; details: PBS pH 6.8, 37°C
Protocol: The THQ release profile from […] […] Briefly, 3 mL of the […] suspension was placed in a dialysis bag (M.W. 12 kDa, Sigma-Aldrich). Each sealed dialysis bag was immersed in 50 mL of PBS (pH 6.8) in a shaking incubator at 37 ± 0.5°C and 100 rpm. Samples were withdrawn from the release medium at specified intervals and replaced with fresh buffer to maintain sink conditions. […] As a control, the release of free THQ and free NTZ was measured under the same conditions. All measurements were performed in triplicate.

Cryptosporidium parvum [2] = experiment: Oocyst shedding in immunosuppressed infected mice; format: in vivo, Swiss albino mice; details: for I % (percent inhibition of oocyst count) / I% (percent inhibition of oocyst count, effectiveness): versus infected untreated group
Protocol: Animals: The study was conducted following approval by the Research Ethics Committee of Zagazig University, Institutional Animal Care and Use Committee (ZU-IACUC), under protocol number ZU-IACUC/2/F/53/2024, following the National Institutes of Health guidelines for animal experimentation. Seventy male laboratory-bred Swiss albino mice free of parasites were included in this study. The mice weighed 20-25 grams at the start of the trial and were between four and six weeks old. They were purchased from the Biological Supply Center of the Theodor Bilharz Research Institute (TBRI). Throughout the trial, the mice were housed in an air-conditioned animal facility maintained at 20-22°C and were provided with a standard commercial pelleted diet and free access to water. […] Immunosuppression: The mice were subjected to immunosuppression by administering dexamethasone (Dexazone, […] Pharmaceuticals, Cairo, Egypt) orally through an esophageal tube at a rate of 0.25 μg/g/day for 14 consecutive days before being inoculated with C. parvum oocysts. Throughout the experiment, the mice received the same dosage of dexamethasone. The infection: In a previous study, we isolated Cryptosporidium oocysts from diarrheal calves and genetically identified them as C. parvum. The 2.5% potassium dichromate solution containing purified oocysts was stored at 4°C until needed. After preparing an infectious inoculum and counting the number of oocysts in the concentrated stock inoculum, the fluid volume of the inoculum per mouse was determined. Oral-gastric gavage was used to infect each mouse orally with C. parvum oocysts. Approximately 3 × 10^3 oocysts/mouse were used to infect each mouse at 0 days post-infection (dpi). […] Thymoquinone loaded on chitosan nanoparticles was given at the same dose for Group VII. Chitosan was administered at 200 mg/kg three times a week, starting at seven dpi for 2 weeks for Group III [36]. Assessments of the drug therapy: Parasitological examination: The mice feces were collected at 7, 14, and 21 dpi. For the oocyst shedding assessment, the number of Cryptosporidium oocysts in the fecal pellets was counted after staining with Kinyoun's acid-fast stain. Fecal samples were collected from each infected mouse. The mean number of oocysts was calculated for each mouse group. After weighing, a milligram of the fecal pellet was placed in 1 milliliter of 10% formalin. Centrifugation concentrated the fecal solution for ten minutes at 7000 rpm. The number of oocysts in one milliliter of the feces sample was calculated using 100 μl of fecal material dried, stained, and observed through an oil immersion lens (x100). The oocyst count was detected and expressed per gram of feces. The effectiveness of each drug was assessed according to [35] and represented as a percentage of reduction using the following formula: Efficacy(%)=100×((infected model group oocyst count-treated model group oocyst count)/(infected model group oocyst count)) %Inhibition = [(mean oocyst count in the infected untreated group - mean oocyst count in the infected treated group)/mean oocyst count in the infected untreated group] × 100

Cryptosporidium parvum [3] = experiment: Histopathological examination and scores of the intestine (H&E); format: in vivo, Swiss albino mice; details: 21 dpi; for Intestinal histopathological findings: H&E, in words
Protocol: At 21 dpi, the mice were humanely euthanized under light anesthesia induced by isoflurane inhalation (Forane®, Baxter, UK). Representative tissue specimens from all animals’ intestines, livers, and spleens were carefully collected and fixed in a 10% neutral buffered formalin solution for 48 hours. Following fixation, the tissues were dehydrated through a graded series of ethyl alcohol concentrations, cleared in xylene, and subsequently embedded in paraffin wax. Two sections, each 5 µm thick, were obtained from each tissue specimen. The sections were then deparaffinized in xylene and rehydrated through a descending series of alcohol concentrations. After rehydration, the tissue sections were mounted onto histological slides and stained with hematoxylin and eosin (H&E) for microscopic examination. The prepared slides were thoroughly analyzed under a light microscope to identify pathological alterations and evaluate the administered drug’s potential ameliorative effects. This standardized protocol ensured accurate and consistent histological assessment across all samples [39]. Histopathological scores for intestine: H&E-stained tissue sections of the intestine were evaluated in a blinded manner by assessing specific histological parameters, including mononuclear cell infiltration in the lamina propria, crypt hyperplasia, depletion or hyperplasia of goblet cells, and alterations in mucosal histoarchitecture. A systematic scoring approach was employed to quantify these histological changes. Histological alterations were counted in 50 randomly selected microscopic fields (captured images; 40 × objective) from each mouse within each experimental group. This method ensured a comprehensive and unbiased assessment of intestinal pathology across all samples [40].

Cryptosporidium parvum [4] = experiment: Histopathological examination of the liver (H&E); format: in vivo, Swiss albino mice; details: 21 dpi, in words
Protocol: (§1) At 21 dpi, the mice were humanely euthanized under light anesthesia induced by isoflurane inhalation (Forane®, Baxter, UK). Representative tissue specimens from all animals’ intestines, livers, and spleens were carefully collected and fixed in a 10% neutral buffered formalin solution for 48 hours. Following fixation, the tissues were dehydrated through a graded series of ethyl alcohol concentrations, cleared in xylene, and subsequently embedded in paraffin wax. Two sections, each 5 µm thick, were obtained from each tissue specimen. The sections were then deparaffinized in xylene and rehydrated through a descending series of alcohol concentrations. After rehydration, the tissue sections were mounted onto histological slides and stained with hematoxylin and eosin (H&E) for microscopic examination. The prepared slides were thoroughly analyzed under a light microscope to identify pathological alterations and evaluate the administered drug’s potential ameliorative effects. This standardized protocol ensured accurate and consistent histological assessment across all samples [39].

Cryptosporidium parvum [5] = experiment: Histopathological examination of the spleen (H&E); format: in vivo, Swiss albino mice; details: 21 dpi, in words
Protocol: as §1

cyclin D1 = experiment: Immunohistochemical staining of cyclin D1 in the intestine; format: in vivo, Swiss albino mice; details: 21 dpi, in words
Protocol: Immunohistochemical examination for detecting intestinal dysplasia using cyclin D1 marker: Three to five-micrometer intestinal tissue sections were deparaffinized using xylene and rehydrated using varying degrees of alcohol. Next, peroxidase activity was blocked using 3% hydrogen peroxide. The Dako target retrieval solution (pH 6.0) was applied for twenty minutes. The sections were treated for one hour with the primary antibody (Anti-Cyclin D1 antibody [SP4], ab 16663, Abcam, UK, diluted 1/100 in PBS). Antibody binding was identified using Dako’s HRP Envision Kit (Dako Cytomation, Denmark).

IFN-γ = experiment: Serum IFN-γ by ELISA; format: in vivo, Swiss albino mice
Protocol: (§2) Immunological measurements: Interleukin-10 (IL-10) and interferon-gamma (IFN-γ) levels in mouse sera were measured. Blood samples were collected in plain tubes from the mice’s retroorbital veins at the indicated time points (14 dpi and 21 dpi). After 30 minutes at room temperature and 15 minutes of centrifugation at 3000 rpm, sera were collected and stored at −20°C. Using an ELISA kit and following the manufacturer’s instructions, the enzyme-linked immunosorbent assay (ELISA) was employed to measure the levels of IFN-γ and IL-10 in the serum (Bioneovan Co.; Ltd, Beijing, China).

IL-10 = experiment: Serum IL-10 by ELISA; format: in vivo, Swiss albino mice
Protocol: as §2

[6] = Pharmacokinetic study after oral administration; format: in vivo, Wistar albino rats; details: rats, oral 20 mg/kg; for AUC(0-t): read-out: AUC₀ → 24; for half-life: read-out: T1/₂ (converted)
Protocol: All groups received an oral dose of 20 mg/kg of their respective formulations. Blood samples (500 μL) were collected from the ocular vein into heparinized tubes at intervals of 0.5, 1, 2, 4, 6, 8, 12, and 24 hours post-administration. The samples were centrifuged at 10,000 rpm for 5 min to isolate plasma stored at −20°C. Plasma samples were deproteinized by adding 1 mL of acetonitrile to each sample, followed by vortexing for 10 min and centrifugation at 6,000 rpm for another 10 min. […] Pharmacokinetic parameters such as peak plasma concentration (Cmax), time to reach peak concentration (Tmax), mean residence time (MRT), area under the curve (AUC), elimination rate constant (Kel), and plasma half-life (t1/2) were calculated using PK Solver 2.0 software through non-compartmental analysis.

L. donovani = tested on: L. donovani; design: method as in Islamuddin et al. [22]; details: in words; ref Islamuddin et al. [22]; cited from earlier work
[7] = 7th day PI (start of treatment), immunosuppressed mice, oral
[8] = 14th day PI, NTZ forms 100 mg/kg/day 5 days, THQ forms and CsNPs 200 mg/kg three times a week, oral from 7 dpi
[9] = 21th day PI, NTZ forms 100 mg/kg/day 5 days, THQ forms and CsNPs 200 mg/kg three times a week, oral from 7 dpi
[10] = Wistar albino, rat, plasma, n = 6

| Compound | Count of Cryptosporidium oocysts per gram stool, Mean ± SE (Cryptosporidium parvum [2]; [7]) | I % (percent inhibition of oocyst count) (Cryptosporidium parvum [2]; 14th day PI) [%] | Count of Cryptosporidium oocysts per gram stool, Mean ± SE (Cryptosporidium parvum [2]; [8]) | I% (percent inhibition of oocyst count, effectiveness) (Cryptosporidium parvum [2]; 21th day PI) [%] | Count of Cryptosporidium oocysts per gram stool, Mean ± SE (Cryptosporidium parvum [2]; [9]) | Intestinal histopathological findings (Cryptosporidium parvum [3]) | Morphometric indices: Villus width (Cryptosporidium parvum [3]; intestine) | Lesion frequency: Epithelial necrosis (Cryptosporidium parvum [3]; intestine, mean ± SE) | Lesion frequency: Goblet cell hyperplasia (Cryptosporidium parvum [3]; intestine, mean ± SE) | Lesion frequency: Mucosal erosion (Cryptosporidium parvum [3]; intestine, mean ± SE) | Lesion frequency: Mucosal ulceration (Cryptosporidium parvum [3]; intestine, mean ± SE) | Lesion frequency: Mucosal-associated lymphocyte hyperplasia (Cryptosporidium parvum [3]; intestine, mean ± SE) | Lesion frequency: Vascular congestion (Cryptosporidium parvum [3]; intestine, mean ± SE) | Lesion frequency: Villus atrophy (Cryptosporidium parvum [3]; intestine, mean ± SE) | Lesion frequency: Villus fusion (Cryptosporidium parvum [3]; intestine, mean ± SE) | Morphometric indices: Thickness of lamina propria (Cryptosporidium parvum [3]; intestine, mean ± SE) | Morphometric indices: Thickness of muscular layer per image (Cryptosporidium parvum [3]; intestine, mean ± SE) | Morphometric indices: Villus height (Cryptosporidium parvum [3]; intestine, mean ± SE) | Morphometric indices: Villus surface area (Cryptosporidium parvum [3]; intestine, mean ± SE) | Liver histopathological findings (Cryptosporidium parvum [4]) | also measured |
| --- | --- | --- | --- | --- | --- | --- | --- | --- | --- | --- | --- | --- | --- | --- | --- | --- | --- | --- | --- | --- | --- |
| CC(=O)Oc1ccccc1C(=O)Nc1ncc([N+](=O)[O-])s1 [NTZ, nitazoxanide, reference compound] | 307.3 ± 3 ^Aa x10^3 per gram stool | 53 | 146.8 ± 2.9 ^Bc x10^3 per gram stool | 54 | 145.5 ± 2.6 ^Bc x10^3 per gram stool | persistent villous atrophy and mild improvement in histopathological alterations | 91.2^A | 9 ± 0.58^B | 21.5 ± 0.76^B | 16 ± 0.58^B | 9.83 ± 0.6^B | 21 ± 0.58^C | 21 ± 0.97^B | 10 ± 0.58^B | 5.17 ± 0.31^B | 174.33 ± 1.05^B | 65.87 ± 0.59^BC | 298.67 ± 2.4^C | 27609.37 ± 307.03^C | partial improvement | drug release ([1]; first eight hours): 100%; Spleen histopathological findings (Cryptosporidium parvum [5]): partial improvement with mild hyperplasia of lymphoid elements; cyclin D1 immunostaining of the intestine (cyclin D1): Moderate immunostaining; IFN-γ serum level, Mean ± SE (IFN-γ; 14 days post-infection): 37.1 ± 1.2 ^b; IFN-γ serum level, Mean ± SE (IFN-γ; 21 days post-infection): 28.1 ± 1.3 ^b; IL-10 serum level, Mean ± SE (IL-10; 14 days post-infection): 16.9 ± 0.6 cd; IL-10 serum level, Mean ± SE (IL-10; 21 days post-infection): 30.9 ± 0.3 ^c; concentration at 0.5 h ([6]; Wistar albino, rat, plasma): 24900 ± 9110 ng/mL; concentration at 12 h ([6]; Wistar albino, rat, plasma): 4160 ± 2710 ng/mL; concentration at 24 h ([6]; Wistar albino, rat, plasma): 1390 ± 890 ng/mL; AUC [6, 10]: 1440 ± 49.4 µg·h/mL; AUC(0-inf) [6, 10]: 1470 ± 52.3 µg·h/mL; Cmax [6, 10]: 53200 ± 4950 ng/mL; Tmax [6, 10]: 2 h; AUC(0-t) [6, 10]: 1440 ± 48.7 µg·h/mL; half-life [6, 10]: 6.55 ± 0.54 h; Kel ([6]; n = 6): 0.105 ± 0.0087 h˦ ¹ |
| CC1=CC(=O)C(C(C)C)=CC1=O [THQ, 2-isopropyl-5-methyl-1,4-benzoquinone] | 300 ± 3.1 ^Aa x10^3 per gram stool | 75 | 78 ± 1.5 ^Bd x10^3 per gram stool | 77 | 72 ± 2.6 ^Cd x10^3 per gram stool | greater improvement than the NTZ-treated group | 91.4^A | 7.5 ± 0.43^B | 20.67 ± 0.49^BC | 14.83 ± 0.65^B | 8.83 ± 0.48^B | 22 ± 0.68^C | 18.5 ± 0.85^B | 9.83 ± 0.87^B | 4.83 ± 0.17^B | 170.33 ± 1.15^BC | 64.35 ± 0.2^C | 302 ± 2.35^C | 27975.53 ± 357.01^C | partial improvement | drug release ([1]; after 12 hours): 100%; Morphometric indices: Crypt depth (Cryptosporidium parvum [3]; intestine, mean ± SE): 79.7 ± 0.22^AB; Spleen histopathological findings (Cryptosporidium parvum [5]): partial improvement with mild hyperplasia of lymphoid elements; cyclin D1 immunostaining of the intestine (cyclin D1): Moderate immunostaining; IFN-γ serum level, Mean ± SE (IFN-γ; 14 days post-infection): 36.8 ± 1.5 ^b; IFN-γ serum level, Mean ± SE (IFN-γ; 21 days post-infection): 29.3 ± 0.6 ^ab; IL-10 serum level, Mean ± SE (IL-10; 14 days post-infection): 18.5 ± 0.6^bc; IL-10 serum level, Mean ± SE (IL-10; 21 days post-infection): 33.3 ± 0.4 ^bc; concentration at 0.5 h ([6]; Wistar albino, rat, plasma): 9790 ± 3250 ng/mL; concentration at 12 h ([6]; Wistar albino, rat, plasma): 4880 ± 1790 ng/mL; concentration at 24 h ([6]; Wistar albino, rat, plasma): 4190 ± 1580 ng/mL; AUC [6, 10]: 340 ± 13.6 µg·h/mL; AUC(0-inf) [6, 10]: 630 ± 22.1 µg·h/mL; Cmax [6, 10]: 43600 ± 7920 ng/mL; MRT [6, 10]: 6.97 ± 1.32 h; Tmax [6, 10]: 4 h; AUC(0-t) [6, 10]: 316 ± 12.5 µg·h/mL; half-life [6, 10]: 53.2 ± 4.88 h; Kel ([6]; n = 6): 0.013 ± 0.0012 h˦ ¹; leishmanicidal activity (L. donovani): significant leishmanicidal activity |
